The target of the experiment is EGFR (UniProt P00533).

Structures are written as SMILES. ≈ marks a conversion by molar mass, not a printed value. Some results are limits rather than exact numbers.

EGFR, sequence (P00533 whole entry, looked up): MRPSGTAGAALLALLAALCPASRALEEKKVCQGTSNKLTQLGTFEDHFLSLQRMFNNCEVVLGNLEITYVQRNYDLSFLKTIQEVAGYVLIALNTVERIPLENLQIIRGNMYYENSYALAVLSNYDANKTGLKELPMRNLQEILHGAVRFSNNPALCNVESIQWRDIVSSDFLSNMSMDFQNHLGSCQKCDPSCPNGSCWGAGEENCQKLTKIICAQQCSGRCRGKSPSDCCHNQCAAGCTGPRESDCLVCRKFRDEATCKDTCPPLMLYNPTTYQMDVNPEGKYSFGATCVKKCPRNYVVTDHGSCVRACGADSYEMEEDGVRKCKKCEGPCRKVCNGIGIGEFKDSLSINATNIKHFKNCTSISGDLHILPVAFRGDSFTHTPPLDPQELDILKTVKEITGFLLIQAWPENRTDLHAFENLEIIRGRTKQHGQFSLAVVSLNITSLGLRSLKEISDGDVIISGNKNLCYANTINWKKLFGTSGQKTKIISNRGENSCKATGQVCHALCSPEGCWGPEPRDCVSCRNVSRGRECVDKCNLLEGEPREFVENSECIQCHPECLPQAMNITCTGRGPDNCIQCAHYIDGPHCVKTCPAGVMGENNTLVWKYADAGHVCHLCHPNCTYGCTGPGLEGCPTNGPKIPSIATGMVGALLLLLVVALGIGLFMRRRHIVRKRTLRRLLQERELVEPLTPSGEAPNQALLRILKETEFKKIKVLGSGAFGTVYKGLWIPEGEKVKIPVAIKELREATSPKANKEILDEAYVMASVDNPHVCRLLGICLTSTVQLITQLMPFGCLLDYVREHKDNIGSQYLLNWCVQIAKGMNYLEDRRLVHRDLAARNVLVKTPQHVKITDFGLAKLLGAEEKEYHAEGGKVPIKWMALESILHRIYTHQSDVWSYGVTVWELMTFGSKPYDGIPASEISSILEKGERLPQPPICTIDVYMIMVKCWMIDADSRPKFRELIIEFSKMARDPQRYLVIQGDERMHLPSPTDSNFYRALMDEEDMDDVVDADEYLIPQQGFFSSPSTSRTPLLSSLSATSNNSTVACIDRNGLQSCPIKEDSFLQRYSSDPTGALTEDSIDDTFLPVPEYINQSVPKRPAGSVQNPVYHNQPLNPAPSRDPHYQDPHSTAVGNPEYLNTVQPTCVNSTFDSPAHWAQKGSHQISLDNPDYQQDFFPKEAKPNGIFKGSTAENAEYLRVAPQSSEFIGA

As to `COc1ccc2c(c1)nc(Nc1ccc3[nH]ccc3c1)n2-c1ncnc(Nc2cc(OC)c(OC)c(OC)c2)n1.COc1ccc2nc(Nc3ccc4[nH]ccc4c3)n(-c3ncnc(Nc4cc(OC)c(OC)c(OC)c4)n3)c2c1`, the IC50 was > 4.5 µg/mL. The same measure for `COc1cc(Nc2ncnc(Nc3ccc(Br)cc3)n2)cc(OC)c1OC`: 0.4 to 2.4 µg/mL (≈ 0.925 to 5.55 µM); for `COc1cc(Nc2ncnc(Nc3cc(OC)c(OC)c(OC)c3)n2)ccc1OCCN1CCOCC1`: 0.4 to 2.4 µg/mL (≈ 0.78 to 4.68 µM).

The compound `COc1cc(Nc2ncnc(Nc3ccc4ccccc4c3)n2)cc(OC)c1OC` came in with an IC50 of 0.4 to 2.4 µg/mL (≈ 0.991 to 5.95 µM). The same measure for `COc1ccc(CNc2nc3cc(OC)ccc3n2-c2ncnc(Nc3cc(OC)c(OC)c(OC)c3)n2)cc1.COc1ccc(CNc2nc3ccc(OC)cc3n2-c2ncnc(Nc3cc(OC)c(OC)c(OC)c3)n2)cc1`: > 4.5 µg/mL. As for `COc1cc(Nc2ncnc(Nc3nc4ccccc4n3C)n2)cc(OC)c1OC`, the figure is > 4.5 µg/mL; as for `N#Cc1ccc(Nc2ncnc(-n3c(=O)[nH]c4ccccc43)n2)cc1`, > 4.5 µg/mL. As for `CCC(O)CNc1ncnc(Nc2ccc(OC)c(OC)c2)n1` (stereo not given), the figure is > 4.5 µg/mL; as for `CC(=O)NS(=O)(=O)c1ccc(Nc2ncnc(N(C)c3cccc(Cl)c3)n2)cc1`, < 0.4 µg/mL; as for `O=c1[nH]c2ccccc2n1-c1ncnc(Nc2ccncc2)n1`, > 4.5 µg/mL.

For `O=c1[nH]c2ccccc2n1-c1ncnc(Nc2ccc(C(F)(F)F)cc2)n1`, the IC50 was > 4.5 µg/mL. The same measure for `COc1ccc(Nc2ncnc(Nc3cc(-c4ccccc4)n[nH]3)n2)cc1OC`: 0.4 to 2.4 µg/mL (≈ 1.03 to 6.16 µM). The same measure for `Fc1cccc(CNc2nc3ccccc3n2-c2ncnc(Nc3cccc(Cn4ccnn4)c3)n2)c1`: 0.4 to 2.4 µg/mL (≈ 0.812 to 4.87 µM). The same measure for `COc1cc(Nc2ncnc(N(CC(=O)OC(C)(C)C)c3ccc(Cl)cc3)n2)cc(OC)c1OC`: 0.4 to 2.4 µg/mL (≈ 0.797 to 4.78 µM); for `COc1cc(Nc2ncnc(Nc3cc(-c4ccc(C(=O)N(C)C)cc4)n[nH]3)n2)cc(OC)c1OC`: 0.4 to 2.4 µg/mL (≈ 0.815 to 4.89 µM). In the case of `Cc1ccc2c(c1)CCCN2c1ncnc(NCc2ccccn2)n1`, the IC50 was > 4.5 µg/mL.

For the compound `c1ccc(CNc2ncccc2-c2ncnc(Nc3ccc(N4CCOCC4)cc3)n2)cc1`, the IC50 is > 4.5 µg/mL. Consider `COc1cc(Nc2ncnc(-c3ccnc(N4CCCCC4)c3)n2)cc(OC)c1OC`, for which the IC50 was > 4.5 µg/mL. In turn, `Cc1ccc2c(c1)CCCN2c1ncnc(Nc2ccc(F)c(F)c2)n1` registered an IC50 of 0.4 to 2.4 µg/mL (≈ 1.13 to 6.79 µM). The same measure for `CC(C)(C)OC(=O)NCc1ccc(Nc2ncnc(Nc3cc(-c4ccco4)n[nH]3)n2)cc1`: 0.4 to 2.4 µg/mL (≈ 0.892 to 5.35 µM); for `COc1cc(Br)ccc1Nc1nc2ccccc2n1-c1ncnc(Nc2cc(OC)c(OC)c(OC)c2)n1`: > 4.5 µg/mL. The same measure for `COc1cc(Nc2ncnc(-n3c(Nc4ccc(C#N)cc4)nc4ccccc43)n2)cc(OC)c1OC`: > 4.5 µg/mL.

Turning to `O=c1[nH]c2ccccc2n1-c1ncnc(Nc2ccc(Cl)cc2Cl)n1`, the IC50 is > 4.5 µg/mL.

In the case of `COc1cc(Nc2ncnc(Nc3[nH]ncc3-c3cccc(Cl)c3)n2)cc(OC)c1OC`, the 50% inhibitory concentration (IC50) was > 4.5 µg/mL.

On to `COc1cc(Nc2ncnc(Nc3cccc4ncccc34)n2)cc(OC)c1OC`, for which the IC50 is 2.4 to 3.5 µg/mL (≈ 5.93 to 8.65 µM). Regarding `COc1ccc(Nc2ncccc2-c2ncnc(Nc3cc(OC)c(OC)c(OC)c3)n2)c(C)c1`, the IC50 was > 4.5 µg/mL. As to `Nc1nc2ccccc2n1-c1ncnc(Nc2cccc(Cl)c2)n1`, the IC50 fell in the range of 0.4 to 2.4 µg/mL (≈ 1.18 to 7.11 µM). The same measure for `COc1ccc(Nc2ncnc(NCCC#N)n2)cc1OC`: > 4.5 µg/mL; for `COc1cc(CNc2ncnc(Nc3cc(-c4ccco4)n[nH]3)n2)cc(OC)c1OC`: > 4.5 µg/mL; for `Clc1cccc(Nc2ncnc(-c3cccs3)n2)c1`: > 4.5 µg/mL.

With `Cc1ccc2c(c1)CCCN2c1ncnc(Nc2cccc(Cl)c2C)n1`, the IC50 is 2.4 to 3.5 µg/mL (≈ 6.56 to 9.57 µM). As for `COc1ccc(Nc2ncnc(N(C)c3ccc(S(=O)(=O)O)cc3)n2)cc1OC`, the figure is > 4.5 µg/mL.

Consider `COc1cc(Nc2ncnc(-n3ccc4cccnc43)n2)cc(OC)c1OC`, for which the IC50 was > 4.5 µg/mL.

For `CN(c1cccc(Cl)c1)c1ncnc(NCCOCCO)n1`, the IC50 was > 4.5 µg/mL. The same measure for `COc1ccc(Nc2ncnc(NCC(=O)c3ccccc3)n2)cc1OC`: 2.4 to 3.5 µg/mL (≈ 6.57 to 9.58 µM). As to `COc1cc(Nc2ncnc(Nc3ccc(N4CCOCC4)cc3)n2)cc(OC)c1OC`, the IC50 was > 4.5 µg/mL. As for `Nc1nc2ccccc2n1-c1ncnc(Nc2ccc(S(N)(=O)=O)cc2)n1`, the figure is > 4.5 µg/mL; as for `O=c1[nH]c2ccccc2n1-c1ncnc(Nc2nccc3ccccc23)n1`, 0.4 to 2.4 µg/mL (≈ 1.13 to 6.75 µM). `COc1cc(Nc2ncnc(-n3c(NCC(C)C)nc4ccccc43)n2)cc(OC)c1OC`: the IC50 is > 4.5 µg/mL. With `COc1cc(Nc2ncnc(-c3ccc(NCc4ccccc4)nc3)n2)cc(OC)c1OC`, the IC50 was > 4.5 µg/mL. As for `COc1ccc2c(c1)c(CCNC(C)=O)cn2-c1ncnc(Nc2cc(OC)c(OC)c(OC)c2)n1`, the figure is > 4.5 µg/mL; as for `CN(c1cccc(Cl)c1)c1ncnc(Nc2ccc(Cl)c(Cl)c2)n1`, > 4.5 µg/mL.

Compound `Clc1cc(Nc2ncnc(Nc3ccc4c(cnn4Cc4ccccc4)c3)n2)cc(Cl)c1Cl` displayed an IC50 of 0.4 to 2.4 µg/mL (≈ 0.805 to 4.83 µM). In the case of `COc1cc(Nc2ncnc(Nc3cc(C)c(O)cc3C)n2)cc(OC)c1OC`, the IC50 was < 0.4 µg/mL. As for `COc1cc(Nc2ncnc(Nc3cc(F)cc(C(F)(F)F)c3)n2)cc(OC)c1OC`, the IC50 is < 0.4 µg/mL.

On to `COc1cc(Nc2ncnc(NC(=O)NCCc3ccccc3)n2)cc(OC)c1OC`, for which the IC50 was > 4.5 µg/mL. As for `CC(=O)NCc1ccc(Nc2ncnc(Nc3cc(-c4ccco4)n[nH]3)n2)cc1`, the figure is 0.4 to 2.4 µg/mL (≈ 1.02 to 6.15 µM).

Turning to `COc1cc(Nc2ncnc(-c3cccnc3Nc3cccc4c3CCCC4)n2)cc(OC)c1OC`, the IC50 is > 4.5 µg/mL. On to `COc1cc(Nc2ncnc(N(CC(=O)OC(C)(C)C)c3ccc4c(c3)OCO4)n2)cc(OC)c1OC`, for which the IC50 fell in the range of 2.4 to 3.5 µg/mL (≈ 4.69 to 6.84 µM). Take `COc1ccc2c(c1)c(CCN(C)C)cn2-c1ncnc(Nc2cc(OC)c(OC)c(OC)c2)n1`: the IC50 was > 4.5 µg/mL. The same measure for `Cc1ccc(Nc2ncnc(-n3cccc3)n2)cc1Cl`: > 4.5 µg/mL. The same measure for `c1cc(Cn2ccnn2)cc(Nc2ncnc(-n3c(Nc4ccc5[nH]ccc5c4)nc4ccccc43)n2)c1`: 2.4 to 3.5 µg/mL (≈ 4.8 to 7.01 µM); for `O=c1[nH]c2ccccc2n1-c1ncnc(Nc2cccc(OC(F)(F)F)c2)n1`: > 4.5 µg/mL; for `Nc1ncnc(Nc2cccc(Cl)c2)n1`: > 4.5 µg/mL. The same measure for `Nc1nc2ccccc2n1-c1ncnc(N2C(=O)c3ccccc3C2=O)n1`: > 4.5 µg/mL; for `NC(=O)Cc1cccc(Nc2ncnc(Nc3cccc(Br)c3)n2)c1`: < 0.4 µg/mL. The compound `COc1cc(Nc2ncnc(Nc3cc(-c4cccc(Cl)c4)n[nH]3)n2)cc(OC)c1OC` came in with an IC50 of 0.4 to 2.4 µg/mL (≈ 0.881 to 5.29 µM).

In the case of `COc1cc(Nc2ncnc(Nc3ccc4[nH]ncc4c3)n2)cc(OC)c1OC`, the IC50 is < 0.4 µg/mL. The same measure for `Cc1cc(Br)ccc1Nc1ncnc(-n2cccc2)n1`: > 4.5 µg/mL; for `COc1cc(Nc2ncnc(N3CCOCC3)n2)cc(OC)c1OC`: > 4.5 µg/mL; for `COC(=O)c1ccc(Nc2ncnc(Nc3cc(-c4ccco4)n[nH]3)n2)cc1`: > 4.5 µg/mL. The same measure for `COc1cccc(Nc2ncnc(-n3c(N)nc4ccccc43)n2)c1`: 2.4 to 3.5 µg/mL (≈ 7.2 to 10.5 µM); for `COc1cc(Nc2ncnc(Nc3ccc4c(c3)Cc3ccccc3-4)n2)cc(OC)c1OC`: > 4.5 µg/mL; for `COc1cc(Nc2ncnc(-n3cc(CCO)c4ccccc43)n2)cc(OC)c1OC`: > 4.5 µg/mL. As for `CNS(=O)(=O)Cc1ccc(Nc2ncnc(Nc3ccc4c(cnn4Cc4ccccc4)c3)n2)cc1`, the figure is 0.4 to 2.4 µg/mL (≈ 0.799 to 4.79 µM).

What is called IC50 is the concentration that gives 50% inhibition.
